Source: publication PMC10618445, “Eucalyptus torquata L. flowers: a comprehensive study reporting their metabolites profiling and anti-gouty arthritis potential” (Scientific Reports, 2023)
One block for each molecule: values may come before it.

Legend:
[1] = tested on: hyaluronidase (bovine testes); assay: Hyaluronidase inhibitory activity; type: biochemical; details: mean ± SD, triplicate
From the text: (§1) Methanol, DPPH (2,2-diphenyl-1-picrylhydrazyl), ABTS (2,2′-Azino-bis (3-ethylbenzothiazoline-6-sulfonic acid)), TPTZ (2,4,6-tri(2-pyridyl)-s-triazine), ascorbic acid, hyaluronic acid (human umbilical cord), sodium hydroxide, hyaluronidase (bovine testes), calcium chloride, p-dimethylaminobenzaldehyde (PDMAB), and sodium borate were purchased from Sigma-Aldrich (USA). COX (ovine) and LOX inhibitor screening assay kits (Cayman Chemical Company, MI, USA), 96-well cell culture plate (Corning Life Sciences, Lowell, MA, USA), PMA (Sigma-Aldrich, St. Luis, MO, USA), and histamine release assay kit (SPI-Bio, France) were used.
Hyaluronidase inhibitory activity of ETME was evaluated spectrophotometrically as reported by Perera et al.[24] with minor modifications. Detailed procedures are described in the supplementary file.
Hyaluronidase inhibitory activity of ETME was evaluated spectrophotometrically as reported by Perera et al., 2018 with minor modifications. […]. The percentage of enzyme inhibition was calculated as follows:
% of inhibition = (Acontrol/Atested sample)/ Acontrol) x 100.
Where Acontrol is the absorbance without addition of the inhibitor and Asample is the absorbance after adding the extract/standard. The IC50 value, the concentration giving 50% inhibition of hyaluronidase activity, was determined by interpolation using the concentration-response curves. […]

[2] = tested on: U937 human monocytes; assay: Histamine release inhibitory activity (PMA-treated cells, ELISA); type: cell-based; details: 20 nM PMA, 1 h, mean ± SD
Description: U937 human monocytes (ATCC, Manassas, VA, USA) were used to study the effect of the extract on histamine release. U937 cells (50,000 cells) were plated in a 96-well plate and treated with various concentration (1000–7.81 µg/mL) of the extract, in presence or absence of 20 nM phorbol myristate acetate (PMA) for 1 h. The cell culture supernatants collected from either untreated control or treated cultures were centrifuged at 10,000 g for 5 min at 4 °C and assessed for the released histamine by the commercially available ELISA kit. Diclofenac was used as the positive control.

[3] = tested on: red blood cell membranes; assay: Membrane stabilization; type: cell-based; details: mean ± SD, triplicate
Description: (§2) Albumin denaturation inhibition was evaluated using the previously described method. Membrane stabilization and proteinase inhibitory potentials were evaluated using the previously reported method. Diclofenac was used as the reference drug. All the experiments were performed in triplicate.
Denaturation of tissue proteins is well documented in the pathogenesis of inflammatory events like arthritis. The protection against protein denaturation is one of NSAIDs mechanisms of action. In addition, red blood cell hemolysis inhibition may provide insights into the process of inflammation. Stabilization of the red blood cell membranes may delay or prevent the lysis and the consequent cytoplasmic contents release and the inflammatory response. So, plants that can interfere with these responses could be very useful for developing novel anti-arthritic drugs. Natural extracts from other Eucalyptus species produced similar albumin denaturation and cell membrane stabilization activities including E. obliqua leaves, E. sideroxylon bark[9] and E. globulus leaves.

[4] = tested on: protease; assay: Protease (proteinase) inhibitory activity; type: biochemical; details: mean ± SD, triplicate
Description: as §2

[5] = tested on: 5-lipoxygenase (5-LOX); assay: 5-lipoxygenase inhibitory assay (lipoxygenase inhibitor screening kit); type: biochemical; details: mean ± SD, triplicate
From the text: as §1
The COX inhibitory activity was assayed using Cayman colorimetric COX (ovine) inhibitor screening assay kit, according to the manufacturer’s instructions. The selectivity index (S.I.) was then calculated as IC50 (COX-1)/IC50 (COX-2). In vitro 5-lipoxygenase (5-LOX) inhibitory assay was carried out using lipoxygenase inhibitor screening assay kit, according to the manufacturer’s instructions. Diclofenac sodium was used as a reference drug.

[6] = ABTS radical scavenging assay; details: mean ± SD, triplicate
Description: DPPH radical scavenging, ABTS radical scavenging and FRAP assays were done according to Dudonne et al.[19] method minor modifications. The details are mentioned in the supplementary file. Briefly, 200 µL of the reaction mixture containing 10 µL extract/ standard at different concentrations (0.1575 - 1 mg/mL) was added to 2,2′-Azino-bis(3-ethylbenzothiazoline-6-sulfonic acid (ABTS) solution (190 µL) then measured at 734 nm in 96 well-plates. The ABTS solution was composed as follows; 5 mL of 14 mM ABTS dissolved in methanol added to 5 mL solution of 4.9 mM potassium persulfate, and subsequently stored for 16 h at room temperature in dark. This solution was diluted with methanol till the absorbance was 0.700.

[7] = DPPH radical scavenging assay; details: mean ± SD, triplicate
Description: DPPH radical scavenging, ABTS radical scavenging and FRAP assays were done according to Dudonne et al.[19] method minor modifications. The details are mentioned in the supplementary file. Briefly, 20 μL of the diluted concentrations of ETME/ standard (0.1575 - 1 mg/mL) were added to 200 μL of 2,2-diphenyl-1-picrylhydrazyl (DPPH) in a 96 well-plate and the absorbance was measured at 517 nm after incubation for 30 min [1] using ascorbic acid as standard. […] was determined using the equation; [(Ac – As) / Ac] × 100. In which, Ac was the control absorbance (DPPH solution without the tested sample) while As was the sample absorbance (DPPH solution in addition to the extract or standard).

[8] = Ferric reducing power assay (FRAP); details: mean ± SD, triplicate
Description: DPPH radical scavenging, ABTS radical scavenging and FRAP assays were done according to Dudonne et al.[19] method minor modifications. The details are mentioned in the supplementary file. The ferric reducing power of the extract was determined using the method reported previously by Dudonne, et al., 2009 [1]. The reduction is monitored by measuring the change of absorbance at 593 nm. […] A standard curve was prepared using various concentrations of FeSO4 .7H2O. All solutions were used on the day of preparation. A 100 µL of the sample solution and 300 μL of deionized water were added to 3 mL of freshly prepared FRAP reagent. The reaction mixture was incubated in a water bath for 30 min at 37 °C. The difference between sample absorbance and blank absorbance was calculated and used to calculate the FRAP value. All measurements were done in triplicate and the EC50 was calculated. Ascorbic acid is used as standard.

[9] = target: xanthine oxidase (XO) (Bos taurus, UniProt P80457); assay: Xanthine oxidase (XO) inhibitory activity; type: biochemical; details: mean ± SD, triplicate; read-out: Xanthine oxidase IC50/EC50 (converted)
xanthine oxidase (XO), sequence (P80457 whole entry): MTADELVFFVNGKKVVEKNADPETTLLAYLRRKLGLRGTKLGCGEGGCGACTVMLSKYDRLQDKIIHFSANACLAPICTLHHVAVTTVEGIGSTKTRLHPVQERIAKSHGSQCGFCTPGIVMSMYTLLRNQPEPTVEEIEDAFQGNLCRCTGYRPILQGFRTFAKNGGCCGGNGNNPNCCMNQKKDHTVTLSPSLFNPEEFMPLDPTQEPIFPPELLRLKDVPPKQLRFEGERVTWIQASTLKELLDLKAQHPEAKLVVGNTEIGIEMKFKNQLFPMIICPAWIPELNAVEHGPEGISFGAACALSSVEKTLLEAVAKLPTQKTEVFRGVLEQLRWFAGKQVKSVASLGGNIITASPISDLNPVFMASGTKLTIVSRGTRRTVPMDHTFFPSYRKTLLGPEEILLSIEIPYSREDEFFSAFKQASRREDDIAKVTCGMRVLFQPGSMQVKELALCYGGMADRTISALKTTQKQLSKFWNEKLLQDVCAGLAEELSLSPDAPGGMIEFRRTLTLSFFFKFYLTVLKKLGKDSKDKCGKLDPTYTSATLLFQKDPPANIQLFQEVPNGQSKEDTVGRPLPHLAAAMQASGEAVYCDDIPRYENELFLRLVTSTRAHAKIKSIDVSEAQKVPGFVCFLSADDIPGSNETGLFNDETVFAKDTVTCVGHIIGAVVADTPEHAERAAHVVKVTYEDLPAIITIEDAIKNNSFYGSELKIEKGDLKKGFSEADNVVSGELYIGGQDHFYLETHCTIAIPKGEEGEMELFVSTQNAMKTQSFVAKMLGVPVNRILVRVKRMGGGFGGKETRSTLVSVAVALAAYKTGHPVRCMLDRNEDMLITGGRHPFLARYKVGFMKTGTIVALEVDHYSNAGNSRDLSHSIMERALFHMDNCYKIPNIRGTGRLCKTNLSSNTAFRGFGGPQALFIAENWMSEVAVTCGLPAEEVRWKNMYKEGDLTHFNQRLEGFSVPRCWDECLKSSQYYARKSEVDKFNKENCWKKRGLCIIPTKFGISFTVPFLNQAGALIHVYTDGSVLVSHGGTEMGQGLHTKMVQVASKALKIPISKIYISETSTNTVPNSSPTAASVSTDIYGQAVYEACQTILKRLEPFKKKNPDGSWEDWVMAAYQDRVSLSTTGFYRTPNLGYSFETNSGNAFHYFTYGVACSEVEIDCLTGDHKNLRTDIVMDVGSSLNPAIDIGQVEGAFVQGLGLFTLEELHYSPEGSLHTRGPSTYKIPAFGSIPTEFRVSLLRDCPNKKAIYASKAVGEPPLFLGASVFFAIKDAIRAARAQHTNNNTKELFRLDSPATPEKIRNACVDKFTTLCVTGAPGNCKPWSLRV
Description: The XO inhibitory activity was assayed following the protocol reported in[22]. Detailed procedures are described in the supplementary file. The XO inhibitory activity was assayed following the protocol reported in [2]. Five hundred µL of different concentrations of ETME/ standard (10- 100 µg/mL) were added to the enzyme solution (1.3 mL of phosphate buffer at concentration of 65 mM and pH 7.4 containing 0.28 U/mL of XO). Then the mixture was incubated for 10 min at 30 ℃. Next, 1.4 mL of the substrate xanthine (0.6 mM) was added to the mixture. The absorbance was measured at every minute for 10 min at 295 nm. Allopurinol was used as the standard drug. The percentage inhibition of XO was calculated as: % inhibition = (1 – Absorbance of sample/ Absorbance of blank) x 100. The IC50 value was calculated from the calibration curve.

[10] = tested on: tyrosinase; assay: Tyrosinase inhibition assay with L-DOPA as substrate; type: biochemical; details: mean ± SD
Description: Tyrosinase inhibition assay was performed with L-DOPA as substrate adopting the previously described method. Detailed procedures are described in the supplementary file.
Tyrosinase inhibition assay was performed with L-DOPA as substrate adopting the method reported in [3]. In a 96-plate, 685 μL of phosphate buffer (0.05 M, pH 6.5), 15 μL of tyrosinase enzyme (2500 U /mL), 200 μL of ETME (7.81–1000 µg/mL) and 100 μL of 5 mM/L L-DOPA were added. The absorbance was immediately monitored at 492 nm. Kojic acid was used as the positive control. The assay was made in triplicate. The percentage inhibition was calculated as follows: % of inhibition = (Acontrol/Atested sample)/ Acontrol) x 100. Where, Acontrol is the absorbance without the addition of the inhibitor and Asample is the absorbance after adding the standard.

ABTS IC50/EC50 [6]: 21.4 ± 1.6 µg/mL | DPPH IC50/EC50 [7]: 2.2 ± 1.6 µg/mL | FRAP IC50/EC50 [8]: 3.9 ± 1.9 µg/mL
SMILES: O=C1O[C@H]([C@@H](O)CO)C(O)=C1O [Ascorbic acid, ascorbic acid]

IC50 [9]: 96.6 µM
SMILES: O=c1[nH]c(=O)c2c[nH]nc2[nH]1 [Oxypurinol]

Tyrosinase IC50/EC50 [10]: 52.0 ± 0.98 µg/mL
SMILES: O=c1cc(CO)occ1O [Kojic acid]

The next lines start with the molecule.

SMILES: O=C([O-])CC([S-])C(=O)[O-].[Au+].[Na+].[Na+] (stereo not shown) [Sodium aurothiomalate]
Hyaluronidase IC50/EC50 [1]: 20.03 ± 0.96 µg/mL

SMILES: O=C(O)Cc1ccccc1Nc1c(Cl)cccc1Cl [Diclofenac]
Histamine release IC50/EC50 [2]: 17.94 ± 1.4 µg/mL | Membrane stabilization IC50/EC50 [3]: 17.02 ± 1.3 µg/mL | Protease IC50/EC50 [4]: 25.14 ± 1.2 µg/mL

SMILES: COc1ccc2c(c1)c(CC(=O)O)c(C)n2C(=O)c1ccc(Cl)cc1 [Indomethacin]
LOX IC50/EC50 [5]: 23.4 ± 0.83 µg/mL
